According to paper PMC5404848 (Cell Chemical Biology, 2017):

What was measured:
HCT116 p53^wt cells [1] = assay: Cell numbers from pictures of Hoechst-stained cells; assay type: cell-based, Human; settings: 3 days, DMSO 6452
Protocol: The cells were plated on the 96-well white, flat bottom plates (Falcon) and treated with DMSO, LCAHA or Staurosporine. For the detection of caspase activity Caspase-Glo 3/7 Assay System was used (Promega) according to the manufacturer’s instructions. Due to the observed growth-inhibitory properties of LCAHA the results were normalized to cell numbers, calculated from the pictures of Hoechst-stained cells seeded on transparent culture plates and treated identically as the cells seeded for caspase activity assay (mean nuclei number per picture was 6452 for 3 days treatment with DMSO, and 3957, 4229 and 2783 for the cells treated with increasing concentrations of LCAHA).

HCT116 p53^wt cells [2] = assay: Western blot analysis of protein expression; assay type: cell-based, Human
U-2 OS cells = assay: MTT assay, 6 days; assay type: cell-based, Human
Protocol: (§1) In addition a colony-forming assay was performed on cyclin D1-addicted MCF-7 cells and cyclin D1-negative SAOS-2 cells.
(§2) For MTT assay, the cells were seeded on 96-well transparent plates and treated the next day with the compounds or DMSO for 6 days. Thiazolyl Blue Tetrazolium Bromide (MTT, Sigma Aldrich) was added for 60 minutes to a final concentration of […]. The medium was removed and MTT crystals were dissolved in isopropanol supplemented with 40 mM HCl. The absorbance was measured with Infinite 200 microplate reader (Tecan Group Ltd.) at 570 nm with the reference wavelength 650 nm for background subtraction.

MCF-7 cells [3] = assay: MTT assay, 6 days; assay type: cell-based, Human
Protocol: as §1, §2

SAOS-2 cells [4] = assay: MTT assay, 6 days; assay type: cell-based, Human
Protocol: as §1, §2

HCT116 cells = assay: Western blot analysis of USP2a targets Aurora A and cyclin A1; settings: 5 μM and 20 μM, 48 hr
Protocol: Total cell lysates were prepared with RIPA buffer (Sigma Aldrich) containing protease inhibitor cocktail (Sigma Aldrich) alone or with phosphatase inhibitor cocktail (Roche). Following the electrophoresis and transfer, PVDF membranes were blocked with 4% BSA (BioShop) in TBS-N buffer and incubated with primary antibody at 4°C overnight. After four washes, the addition of secondary antibodies and additional four washes, the detection was performed using Clarity Western ECL Substrate (BioRad) and ChemiDoc MP system (BioRad). The densitometry analysis was performed with Image Lab software (BioRad). All measured values, besides cyclin D1 stability experiment, were normalized to GAPDH or α-tubulin expression level.

HCT116 p53^−/− cells [5] = assay: MTT assay (cell viability), 6 days treatment; assay type: cell-based, Human; settings: for GI50: HCT116 p53^−/−, MTT assay
Protocol: (§3) To test the biological activity of the compounds, we performed MTT (3-(4,5-dimethylthiazol-2-yl)-2,5-diphenyltetrazolium bromide) and lactate dehydrogenase (LDH) release assays. […] To track not only the toxic (lethal) but also growth-inhibitory (GI) effect in the MTT assay, we treated the cells for 6 days.
as §2

HCT116 p53^wt cells [6] = assay: MTT assay (cell viability), 6 days treatment; assay type: cell-based, Human; settings: for GI50: HCT116^wt, MTT assay
Protocol: as §3, §2

MCF-7 cells [7] = assay: Western blot analysis of cyclin D1 expression; assay type: cell-based, Human; settings: 10 μM, 48 hr
MCF-7 cells [8] = assay: Colony formation assay; assay type: cell-based, Human; settings: 5 μM for 5 days
Protocol: (§4) […]. […] […]. In addition a colony-forming assay was performed on cyclin D1-addicted MCF-7 cells and cyclin D1-negative SAOS-2 cells. […].
(§5) One thousand of the cells was then seeded on 6-well plates and cultured for 2-4 weeks until the generation of well-visible clones. The plates were stained with crystal violet, imaged with the ChemiDoc MP system and analyzed using the ImageJ software ([Schneider et al., 2012]) and ‘Analyze particles’ tool. The surviving fraction (SF) was calculated using the equation: SF = (PE of treated sample / PE of control) * 100%, where PE (plating efficiency) = Ncolonies / Ncells plated.

SAOS-2 cells [9] = assay: Colony formation assay; assay type: cell-based, Human; settings: 5 μM for 5 days
Protocol: as §4, §5

[10] = system: CCND1 mRNA in HCT116, MCF-7, and U-2 OS; assay: RT-PCR of CCND1 mRNA; assay type: cell-based, Human; settings: 10 μM, 48 hr
Protocol: To characterize the mechanism of cyclin D1 downregulation by LCAHA, we first examined the level of CCND1 mRNA. […] In SAOS-2 cells CCND1 mRNA was not detected.
Total RNA was isolated with Renozol (GenoPlast Biochemicals) according to the manufacturer’s instructions. Five hundred ng of RNA was reverse-transcribed using M-MLV RT (Promega) and oligo-dT primer. RT PCR was performed with the use of GoTaq qPCR Master Mix (Promega) and the following primers: for CCND1 mRNA: […] and […], for GAPDH mRNA: […] and […] ([Yin et al., 2001]). The hybridization step was carried out at 60°C and the program involved 30 amplification cycles. The products were separated on 1% agarose gel and visualized with ChemiDoc MP system.

HCT116 p53^−/− cells [11] = assay: Western blot analysis of protein expression; assay type: cell-based, Human; settings: 5 or 20 μM, 48 hr
Excerpt: The progression from G1 to S phase relies largely on the expression and activity of D cyclins. To verify whether the observed impairment in cell-cycle progression following LCAHA treatment is associated with D cyclins, we investigated the expression of cyclins D1 and D3 in HCT116 p53^wt and HCT116 p53^−/− cells.

[12] = Homo sapiens, HCT-116, 144 h, 6 days
[13] = concentration range 2–20 μM, MTT, 6 days

C[C@H](CCC(=O)NO)[C@H]1CC[C@H]2[C@@H]3CC[C@@H]4C[C@H](O)CC[C@]4(C)[C@H]3CC[C@]12C [LCAHA, N-(hydroxy)-3-hydroxylithocholanamide]
mean nuclei number per picture (HCT116 p53^wt cells [1]; first (lowest) of increasing concentrations): 3957 | mean nuclei number per picture (HCT116 p53^wt cells [1]; second of increasing concentrations): 4229 | mean nuclei number per picture (HCT116 p53^wt cells [1]; third (highest) of increasing concentrations): 2783 | phosphorylation of Akt (S473) (HCT116 p53^wt cells [2]; 5 μM, 24–32 hr): increase of the phosphorylation | phosphorylation of GSK-3β (S9) (HCT116 p53^wt cells [2]; 5 μM, 24–32 hr): increase of the phosphorylation | expression of p27 (HCT116 p53^wt cells [2]; 5 or 20 μM, 48 hr, HCT116 cells (Figures 2A and S3A)): not altered | expression of proteins encoded by p53-target genes (MDM2 and p21) and of p53 (HCT116 p53^wt cells [2]; 24 or 48 hr): did not induce | viability (MTT) (U-2 OS cells): biphasic, dose-dependent decrease of viability | viability (MTT) (MCF-7 cells [3]): biphasic, dose-dependent decrease of viability | viability (MTT) (SAOS-2 cells [4]): viability decrease was observed only at high concentrations | expression level of Aurora A (HCT116 cells): significant decrease | expression level of cyclin A1 (HCT116 cells): significant decrease | GI50 (HCT116 p53^−/− cells [5]; 6 days): 960 ± 290 nM | GI50 (HCT116 p53^−/− cells [5]; [12]): < 1000 nM | LD50 (HCT116 p53^−/− cells [5]; Homo sapiens, HCT-116, 144 h, read-out: LD50, HCT116 p53^−/−, MTT assay, 6 days): > 25 µM | growth of cells inhibited (HCT116 p53^−/− cells [5]; [13]): about 60% | GI50 (HCT116 p53^wt cells [6]; 6 days): 870 ± 90 nM | GI50 (HCT116 p53^wt cells [6]; [12]): < 1000 nM | LD50 (concentration killing 50% of cells) (HCT116 p53^wt cells [6]; Homo sapiens, HCT-116, 144 h, read-out: LD50, HCT116^wt, MTT assay, 6 days): > 25 µM | growth of cells inhibited (HCT116 p53^wt cells [6]; [13]): about 60% | cyclin D1 expression (MCF-7 cells [7]): significant decrease of cyclin D1 expression | clonogenic potential (surviving fraction and mean colony size) (MCF-7 cells [8]): significant decrease of the clonogenic potential | clonogenic potential (SAOS-2 cells [9]): did not affect the clonogenic potential | level of CCND1 mRNA [10]: did not change | cyclin D1 expression (HCT116 p53^−/− cells [11]): significant, dose-dependent decrease | cyclin D3 expression (HCT116 p53^−/− cells [11]): no effect
